Here are results for seven molecules from US9701625B2, “Nitrone compounds and their use in personal care” (Dow Global Technologies LLC, priority 2014, dated 2017).

The assay is described as follows: Oxygen Radical Absorbance Capacity (ORAC) protocol. To be noted: for TEAC values compared to the compounds of the invention: in words; for TEAC: Trolox equivalent AO capacity calculated from ORAC values. The protocol:
Antioxidant potential is evaluated using the Oxygen Radical Absorbance Capacity (ORAC) protocol. ORAC is a chemical in-vitro method based on the hydrogen atom transfer (HAT) mechanism (see N. Re et al., Free Radical Biology & Medicine, 26 (9/10), 1231 (1997)). ORAC measures antioxidant inhibition of peroxyl radical induced oxidations and thus reflects classical radical chain breaking antioxidant activity by H atom transfer. In this assay, the peroxyl radical reacts with a fluorescent probe to form a non-fluorescent product. This is quantitated using a fluorescence measurement. Antioxidant capacity is determined by decreased rate and amount of product formed over time. This assay depends upon the free radical damage to the fluorescent probe resulting in the change in its fluorescence intensity. The change of fluorescence intensity is an indicator of the degree of free radical damage. In the presence of an antioxidant, the inhibition of free radical damage is reflected in higher fluorescence intensity and can be measured as antioxidant capacity against the free radicals. The uniqueness of ORAC assay is that the reaction is driven to completion. This allows calculation of the area under the curve (AUC) and gives an absolute quantitation of antioxidancy as opposed to relative measurements in many other assays.
As noted, the longer it takes to observe a decrease in fluorescence, the higher the antioxidant (AO) potential. From the AUC for a given antioxidant, the AUC for blank is subtracted to give its ORAC value. The concentration of AO needed to give the same AUC values as Trolox is calculated and used to represent the Trolox equivalent AO Capacity (TEAC). Trolox is ((±)-6-Hydroxy-2,5,7,8-tetramethylchromane-2-carboxylic acid, CAS #53188-07-1), and is used as an internal control.
The ORAC test is conducted in the compounds of Table 1 above (inventive compounds) as well as to Vitamin C, Vitamin E, and the following comparative compounds:
The inventive nitrones in the ORAC test solutions were at a concentration of 30 micromolar, while the concentrations of Trolox, Vitamin C, Vitamin E, BHT, PBN+BHT, and VAL-IPHA were at 100 micromolar. The TEAC values calculated from the ORAC values are listed the Table 2.

[1] abbreviates: inventive nitrones at 30 micromolar.
The mark [2] stands for this setting: test concentration 100 micromolar.

For `CC(C)(C)/[N+]([O-])=C/c1ccccc1` [PBN], the “TEAC values compared to the compounds of the invention” value (“TEAC values compared to the compounds” below) is given as “not very high”.
As to `[O-]/[N+](=C\c1ccc(O)cc1)Cc1ccc(O)cc1` [compound 2], under setting [1], the TEAC is reported as 2.94.
Turning to `CCCC/C=[N+](\[O-])C(C)C` [VAL-IPHA], the “TEAC values compared to the compounds” value was “not very high”. Moreover, under setting [2], the TEAC is given as 0.18.
For Vitamin E, the TEAC under setting [2] is reported as 0.13.
Turning to `Cc1cc(C(C)(C)C)c(O)c(C(C)(C)C)c1` [BHT], the “TEAC values compared to the compounds” value is given as “not very high”. Moreover, the TEAC under setting [2] is recorded as 0.11-0.21.
Take `COc1cc(/C=[N+](\[O-])Cc2ccc(O)cc2O)ccc1O` [compound 1]: the TEAC under setting [1] is given as 6.45.
Consider `O=C1O[C@H]([C@@H](O)CO)C(O)=C1O` [Vitamin C], for which, under setting [2], the TEAC is 0.76.
